Assays:
[1] = system: PI3-K in BT20 cells (phosphorylation of AKT at serine 473); experiment: PI3-Kα Cellular Assay (AKT Ser473 phosphorylation ELISA in BT20 cells); format: cell-based, human; details: Homo sapiens, BT-20, pAKT Ser473 ELISA, 1 hour incubation
Procedure, shortened: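 Cells seeded overnight in 0.5% FBS, then exposed 1 h at 37 °C to an 11-concentration 1:3 dilution series, in duplicate.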

[2] = molecular target: PI3-Kα (Mus musculus (Mouse), UniProt P42337); experiment: PI3-Kα Biochemical Assay (fluorescence polarization kinase assay)
PI3-Kα, sequence (P42337 whole entry, the tested form may be a part): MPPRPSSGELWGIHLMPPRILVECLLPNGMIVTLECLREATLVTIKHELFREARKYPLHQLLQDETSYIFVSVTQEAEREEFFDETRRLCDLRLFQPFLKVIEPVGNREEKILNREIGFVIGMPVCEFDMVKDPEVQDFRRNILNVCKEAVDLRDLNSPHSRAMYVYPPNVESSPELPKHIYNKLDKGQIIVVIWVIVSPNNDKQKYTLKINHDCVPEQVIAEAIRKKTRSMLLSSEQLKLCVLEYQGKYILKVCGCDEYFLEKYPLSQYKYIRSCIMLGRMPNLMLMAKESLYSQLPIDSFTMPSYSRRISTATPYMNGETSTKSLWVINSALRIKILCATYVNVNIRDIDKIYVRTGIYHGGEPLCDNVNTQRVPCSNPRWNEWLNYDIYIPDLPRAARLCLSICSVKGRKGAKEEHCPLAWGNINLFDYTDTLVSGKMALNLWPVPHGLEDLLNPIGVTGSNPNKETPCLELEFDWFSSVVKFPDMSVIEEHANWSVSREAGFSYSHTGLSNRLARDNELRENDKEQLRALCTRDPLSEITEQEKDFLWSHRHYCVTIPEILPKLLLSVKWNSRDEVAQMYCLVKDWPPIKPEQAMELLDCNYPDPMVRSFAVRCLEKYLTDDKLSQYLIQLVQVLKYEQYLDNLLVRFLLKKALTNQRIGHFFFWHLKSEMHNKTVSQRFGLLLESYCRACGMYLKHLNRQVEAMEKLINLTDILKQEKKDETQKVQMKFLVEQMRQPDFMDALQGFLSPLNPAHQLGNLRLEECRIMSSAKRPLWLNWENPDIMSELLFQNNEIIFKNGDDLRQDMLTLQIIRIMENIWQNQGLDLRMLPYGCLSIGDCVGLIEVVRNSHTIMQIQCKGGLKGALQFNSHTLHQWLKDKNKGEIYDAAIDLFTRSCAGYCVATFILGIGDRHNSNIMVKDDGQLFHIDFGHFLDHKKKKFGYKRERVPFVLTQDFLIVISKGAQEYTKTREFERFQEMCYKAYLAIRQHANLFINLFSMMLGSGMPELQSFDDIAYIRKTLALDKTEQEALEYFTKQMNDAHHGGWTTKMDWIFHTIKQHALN
PI3-Kα, sequence (P26450 whole entry partner, the tested form may be a part): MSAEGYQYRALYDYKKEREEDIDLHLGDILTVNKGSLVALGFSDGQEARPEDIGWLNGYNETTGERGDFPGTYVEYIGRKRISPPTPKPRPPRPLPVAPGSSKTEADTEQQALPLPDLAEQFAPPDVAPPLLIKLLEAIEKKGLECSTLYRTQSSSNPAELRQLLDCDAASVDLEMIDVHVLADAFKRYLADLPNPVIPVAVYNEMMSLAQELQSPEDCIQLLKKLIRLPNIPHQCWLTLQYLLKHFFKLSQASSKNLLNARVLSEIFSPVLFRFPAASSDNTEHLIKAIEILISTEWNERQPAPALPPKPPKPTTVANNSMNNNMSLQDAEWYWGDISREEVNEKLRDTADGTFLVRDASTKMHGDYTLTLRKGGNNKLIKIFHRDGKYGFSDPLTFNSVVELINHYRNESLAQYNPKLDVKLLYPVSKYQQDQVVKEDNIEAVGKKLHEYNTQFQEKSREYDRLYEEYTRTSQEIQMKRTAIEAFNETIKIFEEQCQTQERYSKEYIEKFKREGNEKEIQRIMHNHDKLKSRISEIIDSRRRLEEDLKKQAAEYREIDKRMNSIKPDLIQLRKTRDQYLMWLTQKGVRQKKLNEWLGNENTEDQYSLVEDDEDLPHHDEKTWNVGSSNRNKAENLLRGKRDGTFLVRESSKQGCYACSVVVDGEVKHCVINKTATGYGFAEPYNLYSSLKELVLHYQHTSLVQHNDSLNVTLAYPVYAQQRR
Description: Compounds of the present invention were evaluated for potency against PI3-Kα using an in vitro kinase assay. PI3-Kα activity is measured in vitro by determining the level of phosphorylation of the substrate PI(4,5)P2. The formation of product PI(3,4,5)P3 is monitored by binding to the Grip1 PH domain in a ligand displacement fluorescence polarization (FP) assay, in which the TAMRA-labeled PI(3,4,5)P3 complexed with Grip1 PH domain is displaced by PI(3,4,5)P3 formed in the PI3-Kα reaction resulting in a decrease in FP signal. Mouse PI3-Kα P110 and P85 subunits were co-expressed in insect cells and co-purified to homogeneity. PI(4,5)P2 were obtained from Cayman. TAMRA-labeled PI(3,4,5)P3 were from Echelon, Grip1 PH domain from Dundee and other reagents were from Sigma.
All assays were performed in a Corning solid black 96-well half area plate using LJL Analyst (Molecular Devices) at room temperature. The assay buffer contained 50 mM HEPES, pH 7.4, 150 mM NaCl, 5 mM DTT, and 0.05% CHAPS. Dry powder PI(4,5)P2 was dissolved in 50 mM TRIS, pH 8 to make 1 mM stock solution. The PI(4,5)P2 stock solution was then diluted in the assay buffer to 60 μM, and sonicated for 30 sec before use. To the assay plate, the following reagents were added in sequence: 10 μL of 60 μM PI(4,5)P2, 5 μL of 4 nM PI3-Kα, 2 μL of compound in 25% DMSO, 3 μL of mixture containing 200 μM ATP and 33 mM MgCl2. The final volume for the reaction was 20 μL. The reaction mixture was incubated at room temperature for 35 min. The reaction was then stopped by 20 μL of 20 mM EDTA. […] The FP signal was allowed to develop for 40 min before reading on a LJL analyst at excitation 535 nm and emission 580 nm.
The percentage of inhibition was calculated based on the following equation % inhibition=[1−(FPcompound−FPmax)/(FPmin−FPmax)]×100, where FPcompound is the FP reading at a given compound concentration, FPmin is the FP signal of the PI3-Kα reaction in the absence of a compound, and FPmax is the background FP signal in the absence of PI3-Kα and a compound. The IC50 was determined by fitting the FP signal vs. compound concentration to a sigmoidal dose response equation using GraphPad Prism curve fitting program.

Row | Compound | IC50 [1] | IC50 [2]
1 | COc1ccc(Cn2c(=O)c(-c3ccccc3)cc3c(C)nc(N)nc32)cc1 [Compound 149, 8-(4-Methoxybenzyl)-2-amino-4-methyl-6-phenylpyrido[2,3-d]pyrimidin-7(8H)-one] | > 10000 nM | 310 nM
2 | Cc1nc(N)nc2c1cc(-c1ccccc1)c(=O)n2Cc1ccc(Cl)cc1 [Compound 150, 8-(4-Chlorobenzyl)-2-amino-4-methyl-6-phenylpyrido[2,3-d]pyrimidin-7(8H)-one] | > 10000 nM | 1400 nM
3 | Cc1nc(N)nc2c1cc(-c1ccncc1)c(=O)n2Cc1ccc(Cl)cc1 [Compound 151, 8-(4-Chlorobenzyl)-2-amino-4-methyl-6-(pyridin-4-yl)pyrido[2,3-d]pyrimidin-7(8H)-one] | > 10000 nM | 4900 nM
4 | Cc1nc(N)nc2c1cc(-c1cnc3[nH]ccc3c1)c(=O)n2[C@H]1CC[C@H](O)CC1 [Compound 158, 2-amino-8-(trans-4-hydroxycyclohexyl)-4-methyl-6-(1H-pyrrolo[2,3-b]pyridin-5-yl)pyrido[2,3-d]pyrimidin-7(8H)-one] | 31.9 nM | 1.3 nM
5 | Cc1nc(N)nc2c1cc(-c1cnc3[nH]ccc3c1)c(=O)n2[C@@H]1CC[C@H](O)C1 [Compound 163, 2-amino-8-[(1R,3S)-3-hydroxycyclopentyl]-4-methyl-6-(1H-pyrrolo[2,3-b]pyridin-5-yl)pyrido[2,3-d]pyrimidin-7(8H)-one] | 20.4 nM | 1.2 nM
6 | Cc1nc(N)nc2c1cc(-c1cnc3[nH]ccc3c1)c(=O)n2[C@@H]1CC[C@@H](O)C1 [Compound 165, 2-amino-8-[(1R,3R)-3-hydroxycyclopentyl]-4-methyl-6-(1H-pyrrolo[2,3-b]pyridin-5-yl)pyrido[2,3-d]pyrimidin-7(8H)-one] | 55.8 nM | 1.2 nM
7 | Cc1nc(N)nc2c1cc(Br)c(=O)n2[C@H]1CC[C@@H](O)CC1 [Compound 168, 2-amino-6-bromo-8-(cis-4-hydroxycyclohexyl)-4-methylpyrido[2,3-d]pyrimidin-7(8H)-one] | 228 nM | 130 nM
8 | Cc1nc(N)nc2c1cc(-c1cnc3ccccc3c1)c(=O)n2CC(C)(C)O [Compound 173, 2-amino-8-(2-hydroxy-2-methylpropyl)-4-methyl-6-quinolin-3-ylpyrido[2,3-d]pyrimidin-7(8H)-one] | 322 nM | 270 nM
9 | CO[C@H]1CC[C@H](n2c(=O)c(Br)cc3c(C)nc(N)nc32)CC1 [Compound 178] | 64 nM | 31 nM
10 | Cc1nc(N)nc2c1cc(Br)c(=O)n2C1CCC(=O)CC1 [Compound 184, 2-amino-6-bromo-4-methyl-8-(4-oxocyclohexyl)pyrido[2,3-d]pyrimidin-7(8H)-one] | 211 nM | 110 nM
11 | Cc1nc(N)nc2c1cc(-c1cc[nH]n1)c(=O)n2[C@H]1CC[C@H](O)CC1 [Compound 186, 2-Amino-8-((trans)-4-hydroxycyclohexyl)-4-methyl-6-(1H-pyrazol-3-yl)pyrido[2,3-d]pyrimidin-7(8H)-one] | 25.2 nM | 10 nM
12 | CO[C@H]1CC[C@H](n2c(=O)c(-c3cc[nH]n3)cc3c(C)nc(N)nc32)CC1 [Compound 187, 2-amino-8-(trans-4-methoxycyclohexyl)-4-methyl-6-(1H-pyrazol-3-yl)pyrido[2,3-d]pyrimidin-7(8H)-one] | 17.2 nM | 9.5 nM
13 | CCOc1ccc(-c2cc3c(C)nc(N)nc3n([C@H]3CC[C@H](O)CC3)c2=O)cn1 [Compound 189, 2-amino-6-(6-ethoxypyridin-3-yl)-8-(trans-4-hydroxycyclohexyl)-4-methylpyrido[2,3-d]pyrimidin-7(8H)-one] | 21.2 nM | 2.7 nM
14 | Cc1nc(N)nc2c1cc(-c1ccc(C#N)nc1)c(=O)n2[C@H]1CC[C@H](O)CC1 [Compound 190, 5-[2-amino-8-(trans-4-hydroxycyclohexyl)-4-methyl-7-oxo-7,8-dihydropyrido[2,3-d]pyrimidin-6-yl]pyridine-2-carbonitrile] | 2690 nM | 470 nM
15 | Cc1nc(N)nc2c1cc(-c1cn[nH]c1)c(=O)n2CC(F)(F)F [Compound 197, 2-amino-4-methyl-6-(1H-pyrazol-4-yl)-8-(2,2,2-trifluoroethyl)pyrido[2,3-d]pyrididin-7(8H)-one] | 236 nM | 188 nM
16 | COc1ccc(-c2cc3c(C)nc(N)nc3n(CC(F)(F)F)c2=O)cn1 [Compound 198, 2-amino-6-(6-methoxypyridin-3-yl)-4-methyl-8-(2,2,2-trifluoroethyl)pyrido[2,3-d]pyrimidin-7(8H)-one] | 262 nM | 130 nM

The remaining lines, values ahead:

Row | IC50 [1] | IC50 [2] | Compound
17 | 475 nM | 18 nM | Cc1nc(N)nc2c1cc(-c1cnn(C)c1)c(=O)n2[C@H]1CC[C@H](O)CC1 [Compound 154, 2-amino-8-(trans-4-hydroxycyclohexyl)-4-methyl-6-(1-melhyl-1H-pyrazol-4-yl)pyrido[2,3-d]pyrimidin-7(8H)-one]
18 | 82.9 nM | 11 nM | COc1ccc(-c2cc3c(C)nc(N)nc3n([C@@H]3CC[C@H](O)C3)c2=O)cn1 [Compound 155, 2-amino-8-[(1R,3S)-3-hydroxycyclopentyl]-6-(6-methoxypyridin-3-yl)-4-methylpyrido[2,3-d]pyrimidin-7(8H)-one]
19 | 169 nM | 6.7 nM | Cc1nc(N)nc2c1cc(-c1cn[nH]c1)c(=O)n2[C@H]1CC[C@H](O)CC1 [Compound 156, 2-amino-8-(trans-4-hydroxycyclohexyl)-4-methyl-6-(1H-pyrazol-4-yl)pyrido(2,3-d]pyrimidin-7(8H)-one]
20 | 87.6 nM | 4.6 nM | COc1ccc(-c2cc3c(C)nc(N)nc3n([C@@H]3CC[C@@H](O)C3)c2=O)cn1 [Compound 159, 2-amino-8-[(1R,3R)-3-hydroxycyclopentyl]-6-(6-methoxypyridin-3-yl)-4-methylpyrido[2,3-d]pyrimidin-7(8H)-one]
21 | 10000 nM | 3400 nM | Cc1nc(N)nc2c1cc(-c1ccc(F)cc1)c(=O)n2CC(C)(C)O [Compound 170, 2-amino-6-(4-fluorophenyl)-8-(2-hydroxy-2-methylpropyl)-4-methylpyrido[2,3-d]pyrimidin-7(8H)-one]
22 | 19.3 nM | 4.3 nM | COc1ccc(-c2cc3c(C)nc(N)nc3n(C3CCC(=O)CC3)c2=O)cn1 [Compound 175, 2-amino-6-(6-methoxypyridin-3-yl)-4-methyl-8-(4-oxocyclohexyl)pyrido[2,3-d]pyrimidin-7(8H)-one]
23 | 7.37 nM | 3.9 nM | COc1ccc(-c2cc3c(C)nc(N)nc3n([C@H]3CC[C@H](OC)CC3)c2=O)cn1 [Compound 179, 2-Amino-8-(trans-4-methoxycyclohexyl)-6-(6-methoxypyridin-3-yl)-4-methylpyrido[2,3-d]pyrimidin-7(8H)-one]
24 | 10.1 nM | 6.2 nM | CO[C@H]1CC[C@H](n2c(=O)c(-c3ccc(N(C)C)nc3)cc3c(C)nc(N)nc32)CC1 [Compound 182, 2-amino-6-[6-(dimethylamino)pyridin-3-yl]-8-(trans-4-methoxycyclohexyl)-4-methylpyrido[2,3-d]pyrimidin-7(8H)-one]
25 | 15.2 nM | 18 nM | Cc1nc(N)nc2c1cc(-c1cn[nH]c1)c(=O)n2C1CCC(C)(O)CC1 (centres unmarked) [Compound 185, 2-amino-8-(4-hydroxy-4-methylcyclohexyl)-4-methyl-6-(1H-pyrazol-4-yl)pyrido[2,3-d]pyrimidin-7(8H)-one]
26 | 71.8 nM | 9.4 nM | Cc1nc(N)nc2c1cc(-c1ccc(OC(C)C)nc1)c(=O)n2[C@H]1CC[C@H](O)CC1 [Compound 188, 2-amino-8(trans-4-hydroxycyclohexyl)-6-(6-isopropoxypyridin-3-yl)-4-methylpyrido[2,3-d]pyrimidin-7(8H)-one]
27 | 5.08 nM | 93 nM | Cc1nc(N)nc2c1cc(-c1cnn(C(=O)OC(C)(C)C)c1)c(=O)n2N1CCCC1 [Compound 192, Tert-butyl-4-(2-amino-4-methyl-7-oxo-8-(pyrrolidin-1-yl)-7,8-dihydropyrido[2,3-d]pyrimidin-6-yl)-1H-pyrazole-1-carboxylate]
28 | 19.9 nM | 18.5 nM | Cc1nc(N)nc2c1cc(-c1cn[nH]c1)c(=O)n2C1CCOCC1 [Compound 199, 2-amino-4-methyl-6-(1H-pyrazol-4-yl)-8-(tetrahydro-2H-pyran-4-yl)pyrido[2,3-d]pyrimidin-7(8H)-one]
